Legend:
[1] = In vitro NO release test (incubation with L-cysteine, OD at 550 nm); conditions: 100 μM solution with cysteine solution, 37° C.
Experimental: • (1) Sodium nitrite solutions with different concentrations were prepared. A calibration curve was drawn. • (2) The sample was treated. A 100 μM solution was prepared. 2.5 mL of the prepared compound solution and 2.5 mL of the cysteine solution were taken and incubated at 37° C. for 120 min, and the resulting mixture was sampled at different time points. • (3) A blank hole and a standard hole were set. 160 μL of the sample was collected and mixed evenly with 0.08 mL of a developer and stood at 37° C. for 15 min. At λ=550 nm, the OD value of absorbance was measured by the enzyme marker. The NO release levels were obtained by substituting the value into the standard curve.

U87MG = assay: In vitro anti-tumor activity evaluation test (CCK-8), U87MG; type: cell-based, human; conditions: Homo sapiens, U-87 MG, U87MG, 72 h; for inhibition at 1 µM: read-out: Inhibitory rates against tumor cell lines; for IC50: read-out: IC50 against different tumor cell lines
Experimental: (§1) • (1) Cells were digested and counted. Cell suspensions (H520, SW620 5.0×10^4 cells/mL, and U87MG 3.5×10^4 cells/mL) were prepared. 100 μL of cell suspension was added to each well of a 96-well cell culture plate. • (2) The 96-well cell culture plate was incubated in a 37° C., 5%, CO2 incubator for 24 h. • (3) A drug was diluted with a culture medium to a desired working solution concentration. 100 μL of the corresponding drug-containing culture medium was added to each well. At the same time, a negative control group and a positive control group were set up. • (4) The 96-well cell culture plate was incubated in a 37° C., 5%, CO2 incubator for 72 h. • (5) The 96-well plate was stained with CCK-8, and at λ=450 nm, the OD value was determined. • 1) 10 μL of CCK-8 was added to each well. The culture plate continued to be incubated in the incubator for 2-3 h. • 2) The culture plate was rocked for 10 min to gently mix and remove air bubbles from the 96-well plate. • 3) At λ=450 nm, the OD value of each well was read by the enzyme marker, and the inhibitory rates were calculated. • (6) According to the following equation (1), the growth inhibitory rate of the tumor cells was obtained. The obtained results were substituted into an IC 50 calculation software SPSS17.0 to find out the IC50 value.

NCI-H520 = assay: In vitro anti-tumor activity evaluation test (CCK-8), NCI-H520; type: cell-based, human; conditions: Homo sapiens, NCI-H520, 72 h; for inhibition at 1 µM: read-out: Inhibitory rates against tumor cell lines; for IC50: read-out: IC50 against different tumor cell lines
Experimental: as §1

SW620 = assay: In vitro anti-tumor activity evaluation test (CCK-8), SW620; type: cell-based, human; conditions: Homo sapiens, SW-620, SW620, 72 h; for inhibition at 1 µM: read-out: Inhibitory rates against tumor cell lines; for IC50: read-out: IC50 against different tumor cell lines
Experimental: as §1

Row | SMILES | IC50 (U87MG) | IC50 (NCI-H520) | IC50 (SW620) | NO-release concentrations ([1]; 5 min) | NO-release concentrations ([1]; 10 min) | NO-release concentrations ([1]; 20 min) | NO-release concentrations ([1]; 30 min) | NO-release concentrations ([1]; 60 min) | NO-release concentrations ([1]; 90 min) | NO-release concentrations ([1]; 120 min) | inhibition at 1 µM (U87MG) | inhibition at 1 µM (NCI-H520) | inhibition at 1 µM (SW620)
1 | C=C[C@]1(C)CC[C@@H](C(=C)CN(CCOC(=O)CCC(=O)OCCOc2no[n+]([O-])c2S(=O)(=O)c2ccccc2)C(C)C)C[C@H]1C(=C)CCl [Example 5, 4-(2-((4-(2-((2-((1R,3R,4S)-3-(3-chloroprop-1-en-2-yl)-4-methyl-4-vinylcyclohexyl)allyl)(isopropyl)amino)ethyoxyl)-4-oxobutanoyl)oxy)ethyoxyl)-3-(phenylsulfonyl)-1,2,5-oxadiazole 2-oxide] | 0.369 ± 0.025 µM | – | – | 0.59 µM | 41.61 µM | 48.58 µM | 2.57 µM | 5.58 µM | 9.22 µM | 13.64 µM | 47.1 ± 0.9% | 44.2 ± 1.3% | 33 ± 2.5%
2 | C=C[C@]1(C)CC[C@@H](C(=C)CN(CCOC(=O)CCCC(=O)OCCOc2no[n+]([O-])c2S(=O)(=O)c2ccccc2)C(C)C)C[C@H]1C(=C)CCl [Example 6] | 0.366 ± 0.019 µM | – | – | 3.38 µM | 5.87 µM | 4.62 µM | 6.22 µM | 9.97 µM | 15.53 µM | 20.60 µM | 54.3 ± 1.3% | 43.4 ± 1.5% | 35.6 ± 2.8%
3 | C=C[C@]1(C)CC[C@@H](C(=C)CN(CCOC(=O)CCCC(=O)OCC#CCOc2no[n+]([O-])c2S(=O)(=O)c2ccccc2)C(C)C)C[C@H]1C(=C)CCl [Example 8] | – | – | – | 10.55 µM | 12.34 µM | 15.52 µM | 18.95 µM | 29.50 µM | 43.00 µM | 55.33 µM | 4.5 ± 1% | 5.6 ± 1.6% | 10.8 ± 3.2%
4 | C=C[C@]1(C)CC[C@@H](C(=C)CN2CC[C@H](OC(=O)CCC(=O)OCCOc3no[n+]([O-])c3S(=O)(=O)c3ccccc3)C2)C[C@H]1C(=C)CCl [Example 9, 4-(2-((4-(((S)-1-(2-((1R,3R,4S)-3-(3-chloroprop-1-en-2-yl)-4-methyl-4-vinylcyclohexyl)allyl)pyrrolidine-3-ly)oxy)-4-oxobutanoyl)oxy)ethyoxyl)-3-(phenylsulfonyl)-1,2,5-oxadiazole 2-oxide] | 0.323 ± 0.013 µM | – | – | 3.25 µM | 3.90 µM | 5.98 µM | 7.59 µM | 11.11 µM | 17.29 µM | 23.48 µM | 51.3 ± 1.3% | 44.5 ± 2.8% | 39.3 ± 4.2%
5 | C=C[C@]1(C)CC[C@@H](C(=C)CN2CC[C@H](OC(=O)CCCC(=O)OCCOc3no[n+]([O-])c3S(=O)(=O)c3ccccc3)C2)C[C@H]1C(=C)CCl [Example 10] | 0.343 ± 0.029 µM | 0.848 ± 0.053 µM | 1.02 ± 0.09 µM | 8.39 µM | 9.44 µM | 10.65 µM | 12.22 µM | 18.15 µM | 26.49 µM | 34.97 µM | 53.1 ± 1.4% | 46.7 ± 2% | 45.9 ± 3.9%
6 | C=C[C@]1(C)CC[C@@H](C(=C)CN2CCC(OC(=O)CCCC(=O)OCC#CCOc3no[n+]([O-])c3S(=O)(=O)c3ccccc3)C2)C[C@H]1C(=C)CCl (stereo partly drawn) [Example 12, 4-((4-((5-(((S)-1-(2-((1R,3R,4S)-3-(3-chloroprop-1-en-2-yl)-4-methyl-4-vinylcyclohexyl)allyl)pyrrolidine-3-ly)oxy)-5-oxopentanoyl)oxy)but-2-yn-1-yl)oxy)-3-(phenylsulfonyl)-1,2,5-oxadiazole 2-oxide] | 0.898 ± 0.054 µM | – | – | 13.20 µM | 16.04 µM | 21.29 µM | 26.90 µM | 46.58 µM | 74.45 µM | 103.92 µM | 47.8 ± 1.1% | 39.1 ± 0.7% | 31.7 ± 1.4%
7 | C=C[C@]1(C)CC[C@@H](C(=C)CN2CCC(COC(=O)CCCC(=O)OCC#CCOc3no[n+]([O-])c3S(=O)(=O)c3ccccc3)CC2)C[C@H]1C(=C)CCl [Example 16, 4-((4-((5-((1-(2-((1R,3R,4S)-3-(3-chloroprop-1-en-2-yl)-4-methyl-4-vinylcyclohexyl)allyl)piperidin-4-yl)methoxyl)-5-oxopentanoyl)oxy)but-2-yn-1-yl)oxy)-3-(phenylsulfonyl)-1,2,5-oxadiazole 2-oxide] | 2.16 ± 0.548 µM | 1.05 ± 0.013 µM | – | 16.99 µM | 18.93 µM | 22.62 µM | 27.04 µM | 42.47 µM | 64.24 µM | 86.29 µM | 52.2 ± 3.4% | 52.3 ± 1.1% | 39.8 ± 1.9%

Further lines, with some results ahead:

Row | IC50 (U87MG) | IC50 (NCI-H520) | IC50 (SW620) | SMILES | NO-release concentrations ([1]; 5 min) | NO-release concentrations ([1]; 10 min) | NO-release concentrations ([1]; 20 min) | NO-release concentrations ([1]; 30 min) | NO-release concentrations ([1]; 60 min) | NO-release concentrations ([1]; 90 min) | NO-release concentrations ([1]; 120 min) | inhibition at 1 µM (U87MG) | inhibition at 1 µM (NCI-H520) | inhibition at 1 µM (SW620)
8 | – | 1.02 ± 0.041 µM | – | C=C[C@]1(C)CC[C@@H](C(=C)CN2CC[C@H](OC(=O)CCC(=O)OCC#CCOc3no[n+]([O-])c3S(=O)(=O)c3ccccc3)C2)C[C@H]1C(=C)CCl [Example 11, 4-((4-((4-(((S)-1-(2-((1R,3R,4S)-3-(3-chloroprop-1-en-2-yl)-4-methyl-4-vinylcyclohexyl)allyl)pyrrolidine-3-ly)oxy)-4-oxobutanoyl)oxy)but-2-yn-1-yl)oxy)-3-(phenylsulfonyl)-1,2,5-oxadiazole 2-oxide] | 9.49 µM | 10.79 µM | 14.43 µM | 15.99 µM | 24.58 µM | 37.37 µM | 50.99 µM | 42 ± 6.5% | 46 ± 1% | 30.5 ± 3.3%
9 | 0.477 ± 0.011 µM | 0.846 ± 0.027 µM | 0.814 ± 0.068 µM | C=C[C@]1(C)CC[C@@H](C(=C)CN2CCC(COC(=O)CCCC(=O)OCCOc3no[n+]([O-])c3S(=O)(=O)c3ccccc3)CC2)C[C@H]1C(=C)CCl [Example 14, 4-(2-((5-((1-(2-((1R,3R,4S)-3-(3-chloroprop-1-en-2-yl)-4-methyl-4-vinylcyclohexyl)allyl)piperidin-4-yl)methoxyl)-5-oxopentanoyl)oxy)ethyoxyl)-3-(phenylsulfonyl)-1,2,5-oxadiazole 2-oxide] | 12.34 µM | 13.53 µM | 15.94 µM | 18.96 µM | 29.94 µM | 45.42 µM | 62.49 µM | 54.8 ± 1.9% | 50.1 ± 1.1% | 55.4 ± 1.5%
10 | – | 1.04 ± 0.033 µM | – | C=C[C@]1(C)CC[C@@H](C(=C)CN2CCC(COC(=O)CCC(=O)OCC#CCOc3no[n+]([O-])c3S(=O)(=O)c3ccccc3)CC2)C[C@H]1C(=C)CCl [Example 15, 4-((4-((4-((1-(2-((1R,3R,4S)-3-(3-chloroprop-1-en-2-yl)-4-methyl-4-vinylcyclohexyl)allyl)piperidin-4-yl)methoxyl)-4-oxobutanoyl)oxy)but-2-yn-1-yl)oxy)-3-(phenylsulfonyl)-1,2,5-oxadiazole 2-oxide] | 8.67 µM | 10.07 µM | 12.979 µM | 15.92 µM | 25.47 µM | 36.31 µM | 48.15 µM | 40.5 ± 3.3% | 45.9 ± 1.4% | 31.3 ± 0.3%

From US12624012B2, “14-chloro-β-elemene nitric oxide donor derivative and preparation method and use thereof” (HANGZHOU NORMAL UNIVERSITY, priority 2021, dated 2026)
